Laboratory results taken from ChEMBL document CHEMBL1148500, “Inhibitory activity of cyclohexenyl chalcone derivatives and flavonoids of fingerroot, Boesenbergia rotunda (L.), towards dengue-2 virus NS3 protease” (Bioorg Med Chem Lett, 2006).

Experiments:
[1] = target: Genome polyprotein (dengue virus type 2) (UniProt P29990); assay: Inhibition of dengue2 virus NS2B/NS3 protease activity for Boc-Gly-Arg-Arg-MCA cleavage at 40 ppm
[2] = target: Genome polyprotein (dengue virus type 2) (UniProt P29990); assay: Inhibition of dengue2 virus NS2B/NS3 protease activity for Boc-Gly-Arg-Arg-MCA cleavage at 80 ppm
[3] = target: Genome polyprotein (dengue virus type 2) (UniProt P29990); assay: Inhibition of dengue2 virus NS2B/NS3 protease activity for Boc-Gly-Arg-Arg-MCA cleavage at 120 ppm
[4] = target: Genome polyprotein (dengue virus type 2) (UniProt P29990); assay: Inhibition of dengue2 virus NS2B/NS3 protease activity for Boc-Gly-Arg-Arg-MCA cleavage at 160 ppm
[5] = target: Genome polyprotein (dengue virus type 2) (UniProt P29990); assay: Inhibition of dengue2 virus NS2B/NS3 protease activity for Boc-Gly-Arg-Arg-MCA cleavage at 240 ppm
[6] = target: Genome polyprotein (dengue virus type 2) (UniProt P29990); assay: Inhibition of dengue2 virus NS2B/NS3 protease activity for Boc-Gly-Arg-Arg-MCA cleavage at 400 ppm
[7] = target: Genome polyprotein (dengue virus type 2) (UniProt P29990); assay: Inhibition of dengue2 virus NS2B/NS3 protease activity for Ac-Thr-Arg-Arg-MCA cleavage at 120 ppm
[8] = target: Genome polyprotein (dengue virus type 2) (UniProt P29990); assay: Inhibition of dengue2 virus NS2B/NS3 protease activity for Ac-Thr-Arg-Arg-MCA cleavage at 240 ppm
[9] = target: Genome polyprotein (dengue virus type 2) (UniProt P29990); assay: Inhibition of dengue2 virus NS2B/NS3 protease activity for Ac-Thr-Arg-Arg-MCA cleavage at 400 ppm
Genome polyprotein = Genome polyprotein (dengue virus type 2, UniProt P29990); assay: Inhibition of dengue2 virus NS3 protease

| SMILES | inhibition [1] [%] | inhibition [2] [%] | inhibition [3] [%] | inhibition [4] [%] | inhibition [5] [%] | inhibition [6] [%] | inhibition [7] [%] | inhibition [8] [%] | inhibition [9] [%] | Ki (Genome polyprotein) [µM] |
| --- | --- | --- | --- | --- | --- | --- | --- | --- | --- | --- |
| COc1cc(O)c(C(=O)[C@@H]2[C@H](CC=C(C)C)C(C)=CC[C@H]2c2ccccc2)c(O)c1 [PANDURATIN A] | 27.1 | 66.7 | 87.7 | 93.7 | 92.2 | 99.8 | 47.5 | 59.6 | 90.4 | 25 |
| O=C1C[C@@H](c2ccccc2)Oc2cc(O)cc(O)c21 |  |  | 30.1 |  | 47.3 | 56.1 |  |  |  |  |
| COc1cc(O)cc(O)c1C(=O)/C=C/c1ccccc1 [CARDAMOMIN] |  |  | 39.4 |  | 50.1 | 71.3 |  |  |  | 377 |
| CC(C)=CC[C@@H]1C(C)=CC[C@@H](c2ccccc2)[C@@H]1C(=O)c1c(O)cc(O)cc1O [4-HYDROXYPANDURATIN A] | 52 | 78.1 | 87.6 | 96 | 97.3 | 99.8 | 90.4 | 96.1 | 99.2 | 21 |
| COc1cc(O)c2c(c1)O[C@H](c1ccccc1)CC2=O [PINOSTROBIN] |  |  |  |  |  |  | 76.7 | 80.7 | 88.7 | 345 |
